Experiments:
SE = assay: ganaxolone intravenous bolus plus continuous infusion in SE (inventors' earlier finding); type: in vivo; details: plasma concentration 500 ng/ml or higher for at least about 8 hours
Source text: As described and exemplified herein, the inventors believe that ganaxolone holds promise as an effective therapy for SRSE. […] However, as discussed above, SRSE patients are an extremely ill subset of patients in which SE continues or recurs despite therapy with anesthetic agents (e.g., midazolam, propofol, ketamine, or barbiturate). […] When this occurs, the patient is typically then re-administered anesthetic agents at doses to cause burst suppression and to induce coma. As such, patients are typically weaned off anesthetics very slowly and typically by reducing anesthetics by no more than about 20% per day.

solubility of ganaxolone = type: physicochemical
Experimental: Ganaxolone is insoluble in water. […] Ganaxolone has a relatively long half-life - approximately 20 hours in human plasma following oral administration (Nohria, V. and Giller, E., Neurotherapeutics, (2007) 4(1): 102-105). Furthermore, ganaxolone has a short Tmax, which means that therapeutic blood levels are reached quickly.
Ganaxolone formulations suitable for parenteral administration in the methods of the present invention may comprise physiologically acceptable sterile aqueous or non-aqueous solutions, dispersions, suspensions or emulsions, and sterile powders for reconstitution into sterile injectable solutions or dispersions. Examples of suitable aqueous and non-aqueous carriers, diluents, solvents, or vehicles including water, ethanol, polyols (propylene glycol, polyethylene-glycol, glycerol, cremophor and the like), suitable mixtures thereof, vegetable oils (such as olive oil) and injectable organic esters such as ethyl oleate. Additionally, ganaxolone can be dissolved at concentrations of >1 mg/ml using water soluble beta cyclodextrins (e.g. beta-sulfobutyl-cyclodextrin and 2-hydroxypropylbetacyclodextrin). A particularly suitable cyclodextrin is a substituted-β-cyclodextrin is Captisol®. […]

[1] = safety in the ganaxolone clinical development program; type: in vivo, human
Source text: In the completed placebo-controlled Phase 1, 2, and 3 studies, 0.32% of subjects who received ganaxolone and 0.46% of subjects who received placebo developed elevated LFTs during the study (>3x ULN AST and/or ALT). A subject participating in the ganaxolone paediatric epilepsy study developed liver failure, which was not considered to be related to ganaxolone. The subject was diagnosed with short bowel syndrome, liver steatosis and IgG-cholangitis, which were considered to be the causal factors for the subject’s liver failure. There have been no other cases of Hy’s Law or liver failure in the ganaxolone development program. […] After cessation of the dosing, plasma ganaxolone levels are expected to drop rapidly, but it is possible that low sub-therapeutic levels persist for several days as ganaxolone is slowly released from tissues.
Ganaxolone has been administered to infants with severe forms of epilepsy as early as 4 months of age. In clinical trials involving administration of ganaxolone over several weeks, the study drug has been tapered off over a 1 to 2-week period.

[2] = test system: super refractory status epilepticus; assay: Case Report 3: IV-to-enteric ganaxolone in a person with super refractory status epilepticus (FIRES); type: in vivo, human
Source text: A previously healthy person presented with encephalopathy and fever and developed super refractory status epilepticus concordant with fever-induced refractory […] (FIRES). On administration, the patient presented in the emergency department (ED) with fever, abdominal pain, and encephalopathy. Patient was admitted to pediatric intensive care unit (PICU) and placed on video-electroencephalogram (vEEG). See, FIG. 4.
Immunomodulatory therapies with IV methylprednisolone and IVIG were initiated concomitantly.
After multiple ASMs, failed attempts to wean pentobarbital, and ketamine and midazolam infusions, they were treated under EIND approval for a trial of IV-to-enteric ganaxolone. Ganaxolone was administered on hospital day 17 using an IV bolus, followed by infusion over 6 days (with boluses as needed for breakthrough seizures) (FIG. 5). Midazolam was discontinued on day 2 of GNX IV protocol; ketamine was discontinued by day 8 with the assistance of phenobarbital loads and maintenance Anakinra was initiated on day 2 of GNX IV protocol (hospital day 19).

CYP3A⅘ = assay: metabolism and interaction with strong CYP inducers (in vitro data and human PK data)

CC(=O)[C@H]1CC[C@H]2[C@@H]3CC[C@H]4C[C@](C)(O)CC[C@]4(C)[C@H]3CC[C@]12C [ganaxolone, 3α-hydroxy-3β-methyl-5α-pregnan-20-one]
suppression of SE (SE): rapid and continued suppression of SE
solubility (solubility of ganaxolone; aqueous with cosolvent or surfactant or cyclodextrin, beta-sulfobutyl-cyclodextrin, 2-hydroxypropylbetacyclodextrin, read-out: concentration dissolved using water soluble beta cyclodextrins): > 1000 µg/mL
solubility in water (solubility of ganaxolone; water): insoluble
withdrawal symptoms after cessation ([1]; clinical trials, tapered off over 1 to 2 weeks): no reports of withdrawal symptoms
subjects who developed elevated LFTs (>3x ULN AST and/or ALT) ([1]; completed placebo-controlled Phase 1, 2, and 3 studies): 0.32%
ECG intervals, vital signs, physical or neurological examinations ([1]; development program overall): no clinically significant trends
excretion to breast milk ([1]; ganaxolone and its metabolites): excreted to breast milk
day of GNX IV protocol on which midazolam was discontinued ([2]; IV bolus, infusion over 6 days): 2 days
clinical status ([2]; at 6 weeks, transfer from ICU to the floor): alert and was responsive with some vocalizations
clinical status ([2]; by 4 weeks after admission): more responsive
day by which ketamine was discontinued ([2]; with the assistance of phenobarbital loads and maintenance): ≤ 8 days
metabolizing enzyme (CYP3A⅘; human, in vivo): metabolized by CYP3A⅘
lowering in overall ganaxolone levels and exposure (CYP3A⅘; subjects taking strong CYP inducers (carbamazepine and phenytoin)): ~45%

Source: patent US20230364109A1, “GANAXOLONE FOR USE IN TREATMENT OF SUPER REFRACTORY STATUS EPILEPTICUS” (MARINUS PHARMACEUTICALS, INC., priority 2020, published 2023)
